# Measured values as given in ChEMBL document CHEMBL2380212, “Synthesis, single crystal and antitumor activities of benzimidazole-quinazoline hybrids” (Bioorg Med Chem Lett, 2013).
# Legend:
# Assay type in all cases: functional
# T47D = assay: Cytotoxicity against human T47D cells at 10 uM after 48 hrs by SRB assay; details: read-out: GI
# MCF7 = assay: Cytotoxicity against human MCF7 cells at 10 uM after 48 hrs by SRB assay; details: MCF7, 48 h, read-out: GI
# MDA-MB-231 = assay: Cytotoxicity against human MDA-MB-231 cells at 10 uM after 48 hrs by SRB assay; details: MDA-MB-231, 48 h, read-out: GI
# DU-145 = assay: Cytotoxicity against human DU145 cells at 10 uM after 48 hrs by SRB assay; details: DU-145, 48 h, read-out: GI
# UO-31 = assay: Cytotoxicity against human UO31 cells at 10 uM after 48 hrs by SRB assay; details: UO-31, 48 h, read-out: GI
# PC-3 = assay: Cytotoxicity against human PC3 cells at 10 uM after 48 hrs by SRB assay; details: PC-3, 48 h, read-out: GI
# TK-10 = assay: Cytotoxicity against human TK10 cells at 10 uM after 48 hrs by SRB assay; details: TK-10, 48 h, read-out: GI
# SN12C = assay: Cytotoxicity against human SN12C cells at 10 uM after 48 hrs by SRB assay; details: read-out: GI
# CAKI-1 = assay: Cytotoxicity against human Caki1 cells at 10 uM after 48 hrs by SRB assay; details: CAKI-1, 48 h, read-out: GI
# ACHN = assay: Cytotoxicity against human ACHN cells at 10 uM after 48 hrs by SRB assay; details: read-out: GI
# 786-0 = assay: Cytotoxicity against human 786-0 cells at 10 uM after 48 hrs by SRB assay; details: 786-0, 48 h, read-out: GI
# SK-OV-3 = assay: Cytotoxicity against human SKOV3 cells at 10 uM after 48 hrs by SRB assay; details: SK-OV-3, 48 h, read-out: GI
# NCI/ADR-RES = assay: Cytotoxicity against human NCI/ADR-RES cells at 10 uM after 48 hrs by SRB assay; details: read-out: GI
# OVCAR-8 = assay: Cytotoxicity against human OVCAR8 cells at 10 uM after 48 hrs by SRB assay; details: OVCAR-8, 48 h, read-out: GI
# OVCAR-4 = assay: Cytotoxicity against human OVCAR4 cells at 10 uM after 48 hrs by SRB assay; details: OVCAR-4, 48 h, read-out: GI
# OVCAR-3 = assay: Cytotoxicity against human OVCAR3 cells at 10 uM after 48 hrs by SRB assay; details: OVCAR-3, 48 h, read-out: GI
# IGROV-1 = assay: Cytotoxicity against human IGROV1 cells at 10 uM after 48 hrs by SRB assay; details: IGROV-1, 48 h, read-out: GI
# UACC-62 = assay: Cytotoxicity against human UACC62 cells at 10 uM after 48 hrs by SRB assay; details: UACC-62, 48 h, read-out: GI
# UACC-257 = assay: Cytotoxicity against human UACC257 cells at 10 uM after 48 hrs by SRB assay; details: UACC-257, 48 h, read-out: GI
# SK-MEL-28 = assay: Cytotoxicity against human SK-MEL-28 cells at 10 uM after 48 hrs by SRB assay; details: SK-MEL-28, 48 h, read-out: GI
# SK-MEL-5 = assay: Cytotoxicity against human SK-MEL-5 cells at 10 uM after 48 hrs by SRB assay; details: SK-MEL-5, 48 h, read-out: GI
# MDA-MB-435 = assay: Cytotoxicity against human MDA-MB-435 cells at 10 uM after 48 hrs by SRB assay; details: MDA-MB-435, 48 h, read-out: GI
# LOX IMVI = assay: Cytotoxicity against human LOXIMVI cells at 10 uM after 48 hrs by SRB assay; details: read-out: GI
# SNB-19 = assay: Cytotoxicity against human SNB19 cells at 10 uM after 48 hrs by SRB assay; details: SNB-19, 48 h, read-out: GI
# SF-295 = assay: Cytotoxicity against human SF295 cells at 10 uM after 48 hrs by SRB assay; details: SF-295, 48 h, read-out: GI
# SF-539 = assay: Cytotoxicity against human SF539 cells at 10 uM after 48 hrs by SRB assay; details: SF-539, 48 h, read-out: GI
# SF-268 = assay: Cytotoxicity against human SF268 cells at 10 uM after 48 hrs by SRB assay; details: SF-268, 48 h, read-out: GI
# SW-620 = assay: Cytotoxicity against human SW620 cells at 10 uM after 48 hrs by SRB assay; details: SW-620, 48 h, read-out: GI
# HCT-15 = assay: Cytotoxicity against human HCT15 cells at 10 uM after 48 hrs by SRB assay; details: HCT-15, 48 h, read-out: GI
# HCC 2998 = assay: Cytotoxicity against human HCC2998 cells at 10 uM after 48 hrs by SRB assay; details: HCC 2998, 48 h, read-out: GI
# COLO 205 = assay: Cytotoxicity against human COLO205 cells at 10 uM after 48 hrs by SRB assay; details: COLO 205, 48 h, read-out: GI
# NCI-H522 = assay: Cytotoxicity against human NCI-H522 cells at 10 uM after 48 hrs by SRB assay; details: NCI-H522, 48 h, read-out: GI
# NCI-H322M = assay: Cytotoxicity against human NCI-H322M cells at 10 uM after 48 hrs by SRB assay; details: read-out: GI
# NCI-H226 = assay: Cytotoxicity against human NCI-H226 cells at 10 uM after 48 hrs by SRB assay; details: NCI-H226, 48 h, read-out: GI
# HOP-62 = assay: Cytotoxicity against human HOP62 cells at 10 uM after 48 hrs by SRB assay; details: HOP-62, 48 h, read-out: GI
# HOP-92 = assay: Cytotoxicity against human HOP92 cells at 10 uM after 48 hrs by SRB assay; details: HOP-92, 48 h, read-out: GI
# [1] = Cytotoxicity against human EKVX cells at 10 uM after 48 hrs by SRB assay; details: read-out: GI
# A549 = assay: Cytotoxicity against human A549 cells at 10 uM after 48 hrs by SRB assay; details: A549, 48 h, read-out: GI
# SR = assay: Cytotoxicity against human SR cells at 10 uM after 48 hrs by SRB assay; details: read-out: GI
# MOLT-4 = assay: Cytotoxicity against human MOLT4 cells at 10 uM after 48 hrs by SRB assay; details: MOLT-4, 48 h, read-out: GI
# RPMI-8226 = assay: Cytotoxicity against human RPMI8226 cells at 10 uM after 48 hrs by SRB assay; details: RPMI-8226, 48 h, read-out: GI
# HL-60(TB) = assay: Cytotoxicity against human HL-60(TB) cells at 10 uM after 48 hrs by SRB assay; details: HL-60, 48 h, read-out: GI
structure (smiles),measurement,setting,value
C=CCn1c(C)nc2ccc(Nc3nc(Cl)nc4ccccc34)cc21,inhibition of growth at 10 µM,T47D,18.5%
same,inhibition of growth at 10 µM,MCF7,< 10%
same,inhibition of growth at 10 µM,MDA-MB-231,10.1%
same,inhibition of growth at 10 µM,DU-145,< 10%
same,inhibition of growth at 10 µM,UO-31,< 10%
same,inhibition of growth at 10 µM,PC-3,18%
same,inhibition of growth at 10 µM,TK-10,< 10%
same,inhibition of growth at 10 µM,SN12C,< 10%
same,inhibition of growth at 10 µM,CAKI-1,12.8%
same,inhibition of growth at 10 µM,ACHN,< 10%
same,inhibition of growth at 10 µM,786-0,12.2%
same,inhibition of growth at 10 µM,SK-OV-3,< 10%
same,inhibition of growth at 10 µM,NCI/ADR-RES,< 10%
same,inhibition of growth at 10 µM,OVCAR-8,< 10%
same,inhibition of growth at 10 µM,OVCAR-4,< 10%
same,inhibition of growth at 10 µM,OVCAR-3,< 10%
same,inhibition of growth at 10 µM,IGROV-1,< 10%
same,inhibition of growth at 10 µM,UACC-62,< 10%
same,inhibition of growth at 10 µM,UACC-257,< 10%
same,inhibition of growth at 10 µM,SK-MEL-28,< 10%
same,inhibition of growth at 10 µM,SK-MEL-5,< 10%
same,inhibition of growth at 10 µM,MDA-MB-435,< 10%
same,inhibition of growth at 10 µM,LOX IMVI,< 10%
same,inhibition of growth at 10 µM,SNB-19,< 10%
same,inhibition of growth at 10 µM,SF-295,15.2%
same,inhibition of growth at 10 µM,SF-539,< 10%
same,inhibition of growth at 10 µM,SF-268,10.1%
same,inhibition of growth at 10 µM,SW-620,< 10%
same,inhibition of growth at 10 µM,HCT-15,< 10%
same,inhibition of growth at 10 µM,HCC 2998,< 10%
same,inhibition of growth at 10 µM,COLO 205,< 10%
same,inhibition of growth at 10 µM,NCI-H522,< 10%
same,inhibition of growth at 10 µM,NCI-H322M,< 10%
same,inhibition of growth at 10 µM,NCI-H226,< 10%
same,inhibition of growth at 10 µM,HOP-62,< 10%
same,inhibition of growth at 10 µM,HOP-92,< 10%
same,inhibition of growth at 10 µM,[1],< 10%
same,inhibition of growth at 10 µM,A549,18.5%
same,inhibition of growth at 10 µM,SR,< 10%
same,inhibition of growth at 10 µM,MOLT-4,21.3%
same,inhibition of growth at 10 µM,RPMI-8226,24.7%
same,inhibition of growth at 10 µM,HL-60(TB),15.9%
